The source of these data is patent publication US20190276793A1, “Methods and Apparatus for Regulation of Gene Expression Across a Large-Scale Solid Structure” (Massachusetts Institute of Technology, priority 2018, published 2019).

The structures appear in SMILES notation.

For the test, the system named is E. coli strain IPTG/GFP. Description: GFP induction by cured chemical signaling resin in the IPTG/GFP reporter strain. The class given is cell-based. To be noted: IPTG 2.0 M, after UV-curing. The text has this: In some use cases, this prototype facilitates fluorometric assays of gene expression as follows: Strains with fluorescent protein outputs are constructed. The strains IPTG/GFP, AHL/GFP, and RHA/GFP each express a green fluorescent protein (GFP) under the control of promoters LacI, LuxR, and RhaBAD when induced by the chemicals IPTG, N-acyl homoserine lactone (AHL), Rhamnose (RHA), respectively. For orthogonal AHL and IPTG patterning, the strain AHL/RFP is also cloned to produce a differentiable red fluorescent protein (RFP) under AHL-inducible control. Also, gene constructs using combinatorial promoters (where IPTG.AHL/GFP equated to NAND logic function and IPTG.AHL/GFP equated to AND logic function) were cloned for HLM objects performing spatial patterning from two-input cell logic. These transcriptional regulators may be utilized for multi-signal pattern generation.
In a test of this prototype, different photopolymer resins (with embedded chemical signaling molecules) were created by mixing incremental concentrations and ratios of DMSO-solubilized inducer, IPTG, and uncured resin in low light. To rapidly manufacture test pieces, a VeroClear™ RGD810 tray was printed with 3×3 circular wells (10 mm diameter, 3 mm depth). […]

`CC(C)S[C@@H]1O[C@H](CO)[C@H](O)[C@H](O)[C@H]1O` [IPTG, Isopropyl β-D-1-thiogalactopyranoside]: the “induction in E. coli strain IPTG/GFP” value was “robust induction”.
